Data from US11116778B2, “Prodrugs of ALOX-15 inhibitors and methods of using the same” (EMPIRICO INC., priority 2019, dated 2021).

Legend:
[1] = tested on: Human nasal epithelial primary cells (HNEpC); experiment: Levels of compound 5 and compound 3 in media of human nasal epithelial primary cells, LC-MS/MS; assay type: in vitro ADME; details: HNEpC treated with 5 μM or 1 μM compound 5
Experimental: Human nasal epithelial primary cells (HNEpC) (PromoCell GmbH, Heidelberg, Germany) were cultured according to the manufacturer in provided Primary Cell media in 24 well plates at a density of 25,000 cells per well. Cells were treated with 5 μM or 1 μM of compound 5 or vehicle only (water) in media containing 20 ng/mL IL-13 for 24 hours in a 37° C. cell culture incubator. The following day, media was replaced and fresh media containing 20 ng/mL IL-13 and compound 5 or vehicle was added to each well, then incubated again for 24 hours in a 37° C. cell culture incubator. The process was repeated once more for a 24-hour period.
To determine levels of arachidonic acid and linoleic acid metabolites after compound treatment, cell media was replaced with fresh Primary Cell media without IL-13. ALOX15 substrate (arachidonic acid or linoleic acid) was added to each well at a concentration of 1.5 μM and cells further incubated 37° C. for 1 hour. Media was collected from each well and quenched with an equal volume of LC/MS extraction buffer (methanol, 60 mM ascorbic acid, 0.1% acetic acid).
From the quenched media samples, compound 5 and compound 3 were also quantified. Compound 3 was quantified using LC-MS/MS (QTrap5500, Applied Biosystems). […] Compound 5 was quantified using LC-MS/MS (QTrap5500, Applied Biosystems). […]

[2] = molecular target: T1, 15-lipoxygenase in primary peripheral blood eosinophils (Homo sapiens, UniProt P16050); experiment: Inhibition of 15-lipoxygenase in human primary eosinophils, 15(S)-HETE ELISA; details: 3 μM arachidonic acid
T1 sequence (P16050 1-662): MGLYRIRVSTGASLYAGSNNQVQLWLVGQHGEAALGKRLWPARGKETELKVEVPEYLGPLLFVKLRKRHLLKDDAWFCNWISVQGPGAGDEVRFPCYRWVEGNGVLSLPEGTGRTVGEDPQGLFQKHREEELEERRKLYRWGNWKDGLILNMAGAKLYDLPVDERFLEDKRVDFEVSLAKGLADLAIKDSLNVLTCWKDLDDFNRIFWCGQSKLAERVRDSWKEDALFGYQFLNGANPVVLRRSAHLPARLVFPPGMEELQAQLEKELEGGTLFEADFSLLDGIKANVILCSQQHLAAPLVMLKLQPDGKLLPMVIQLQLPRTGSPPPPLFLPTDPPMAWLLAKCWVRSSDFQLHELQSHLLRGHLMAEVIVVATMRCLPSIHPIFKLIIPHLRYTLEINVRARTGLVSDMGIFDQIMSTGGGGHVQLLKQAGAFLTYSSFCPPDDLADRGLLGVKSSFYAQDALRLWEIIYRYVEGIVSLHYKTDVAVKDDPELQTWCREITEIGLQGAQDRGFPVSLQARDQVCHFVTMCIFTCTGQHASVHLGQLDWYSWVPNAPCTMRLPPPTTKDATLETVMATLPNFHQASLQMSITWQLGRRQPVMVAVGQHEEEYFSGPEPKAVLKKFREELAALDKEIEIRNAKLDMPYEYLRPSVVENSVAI
Experimental: Primary peripheral blood eosinophils from 2 separate donors (StemExpress) were thawed from frozen and allowed to recover in growth media for 4 hours at 37° C. Cells were washed with Hank's Balanced Salt Solution, then aliquoted into 96 well round bottomed plate at 1*10^5 cells/well, 200 μL/well. […] Arachidonic acid was added to final concentration of 3 μM and experiment started. At 1 hour post-treatment the supernatant was collected and 15(S)-HETE was quantified by ELISA (Cayman Chemical) according to manufacturer's recommended protocol. Comparisons were made between the cells treated with the test compounds and cells treated with vehicle only.

Compound: O=C(Nc1ccc(F)cc1Cl)c1nn(COP(=O)(O)O)c(Cl)c1Cl [compound 5, (4,5-dichloro-3-((2-chloro-4-fluorophenyl)carbamoyl)-1H-pyrazol-1-yl)methyl dihydrogen phosphate]
- conversion of compound 5 to compound 3 in quenched media samples (FIG. 6) [1]: majority of compound 5 was converted to compound 3
- decrease in 15-HETE production compared to vehicle or ALP alone (FIG. 2) ([2]; 10 μM pretreated 15 minutes with 0.2 U alkaline phosphatase (ALP), 1 hour): approximately 60%
- decrease in 15-HETE production compared to vehicle or ALP alone (FIG. 2) ([2]; 10 μM, 1 hour post-treatment): approximately 40%
